{
  "source": "patent US10420770B2",
  "about": "“Compositions and methods for treating dementia” (EIP Pharma, LLC, priority 2016, dated 2019)",
  "key": {"[1]": {"system": "DS (Down's Syndrome) human fibroblasts", "experiment": "EEA1-labeled early endosomes in Down's Syndrome human fibroblasts (Example 4)", "type": "cell-based", "settings": "0, 1, 10, or 50 nM VX-745 for 24 hours", "description": "Down's Syndrome (DS, Trisomy 21) derived human fibroblasts provide a robust system for studying Alzheimer's related endosomal dysfunction as one of the Familial Alzheimer's disease (FAD) genes, Amyloid Precursor Protein (APP), is expressed on chromosome 21 and as a result inherently DS individuals overexpress APP and develop an Alzheimer's type dementia as they grow older beyond age 40 (Jiang, Y, et. al., “Alzheimer's-related endosome dysfunction in Down syndrome is Aβ-independent but requires APP and is reversed by BACE-1 inhibition,” PNAS 107:1630-1635 (2010)).\nIn vitro, DS human fibroblasts show increased numbers and enlarged early endosomes by electron microscopy or by fluorescence staining with antibodies to EEA1 (Early Endosome Antigen 1). […] After incubation, the cells were fixed and incubated with anti-EEA1 antibody to label early endosomes."}, "amyloid plaque load": {"system": "amyloid plaque load", "experiment": "Quantitative dynamic [11C]PiB PET amyloid scanning (RPM2-BPND), 12-week study", "type": "in vivo, human", "settings": "for Number of Responders/Total Number in Population, PET metric Cingulate Posterior / Number of Responders/Total Number in Population, PET metric Frontal / Number of Responders/Total Number in Population, PET metric Global / Number of Responders/Total Number in Population, PET metric Med Temp Lobe / Number of Responders/Total Number in Population, PET metric Parietal / Number of Responders/Total Number in Population, PET metric Temporal: responder = reduction of ≥7% in RPM2-BPND", "description": "Dosing started on Day 1 following completion of all baseline procedures. During the treatment period, subjects returned to the clinic on Days 14, 28, 56, and 84. […] Dynamic PET scanning with fill quantitative analysis was performed at baseline and at the end of treatment.\nTarget engagement was assessed through the use of an AD-related biomarker. The primary endpoint was based on assessment of amyloid plaque burden using quantitative dynamic PET amyloid scanning (Tolboom, N. et al. “Test-retest variability of quantitative [^11C]PIB studies in Alzheimer's disease.” Eur. J. Nucl. Med. Mol. Imaging 36(10): 1629-1638 (2009)). The method of van Berckel et al (van Berckel B N, R. Ossenkoppele, et al. “Longitudinal amyloid imaging using ^11CPiB: Methodologic considerations.” J. Nucl. Med. 5=1; 1570-1576 (2013)) was followed, in which dynamic emission scanning consists of 23 frames with progressive increases in frame duration (1·15, 3·5, 3·10, 2·30, 3·60, 2·150, 2·300, and 7·600 s) for a total scan duration of 90 min; and subsequently full quantitative data analysis of the images was performed by reference parametric mapping (RPM2) using cerebellum as reference tissue. This methodology allowed for a more reliable (i.e. less variable) assessment of brain amyloid plaque load than standard amyloid PET imaging. In addition this method of measuring amyloid burden has high scan-to-scan stability (˜2-3% test-test variability) within subjects. No placebo group was enrolled. Instead, reductions in brain amyloid plaque load of greater than 7%, which is definitively outside the range of test-test variability, were considered to be a drug effect in this study."}, "[2]": {"experiment": "Safety and tolerability, 12-week Phase IIa study (Example 1)", "type": "in vivo, human", "settings": "40 mg or 125 mg twice daily, 12 weeks", "description": "Investigators and patients were blind to the dosage strength. […] Patients were instructed to take doses within 30 minutes following a meal or snack, with each dose taken approximately 12 hours apart at the same times each day throughout the study.\nSixteen subjects completed the full 12 weeks of treatment and all were included in safety analyses. […] In the PK analysis, due to the sparse sampling collection design, the time period from 0 to 24 hours post-dose was divided into 4 blocks in order to show the distribution of concentrations over time. […] Average blood concentration of about 8 ng/mL at the 40 mg dose level was observed. This is higher than the 5 ng/mL."}, "[3]": {"system": "patients with mild cognitive impairment (MCI) due to Alzheimer's disease (AD) or with mild AD", "experiment": "MMSE, 6-week study (Example 2)", "type": "in vivo, human", "settings": "baseline vs day 40; no statistical analyses", "description": "The MMSE is a questionnaire used extensively in clinical and research settings to measure mental function. It is commonly used to screen for dementia, and to assess the severity and progression of dementia. The MMSE is an effective way to document a human subject's response to treatment. The test examines functions including registration, attention and calculation, recall, language, ability to follow simple commands and orientation.\nSubjects were men and women between 60-85 years old, having a confirmed diagnosis of MCI due to AD or mild AD (consistent with National Institute of Aging and Alzheimer's Association research diagnostic guidelines) and a Mini-Mental State Examination (MMSE) score greater than 20. Inclusion criteria included gradual and progressive decline in memory function reported by patients or informants over more than 6 months; an amnestic presentation on formal neuropsychological testing that was characterized by a pattern of rapid forgetting, as determined by the PI/subinvestigator; evidence of functional decline as evidenced by a CDR sum of box score of ≥0.5; and MMSE score of 17 to 30, inclusive. […] A total of 9 subjects were enrolled and all were included in safety analysis; 8 subjects completed 6 weeks treatment and were included in pharmacodynamics analysis. […]"}, "butylcholinesterase": {"system": "butylcholinesterase", "experiment": "CSF butylcholinesterase, 6-week study", "type": "in vivo, human", "settings": "baseline to day 40"}},
  "note": "“And” between values parts separate entries of the source, which are not always exact repeats. Identical values can stand only once.",
  "data": [
    {"smiles": "O=c1ncn2nc(Sc3ccc(F)cc3F)ccc2c1-c1c(Cl)cccc1Cl", "note": "[VX-745]", "values": [
      {"measurement": "average number of EEA1-labeled endosomes per DS cell", "setting": "[1]", "value": "significantly reduced"},
      {"measurement": "average size of EEA1-labeled endosomes in DS cells", "setting": "[1]", "value": "significantly reduced"},
      {"measurement": "subjects between 3 and 7% (% change RPM2_BPND)", "setting": "amyloid plaque load; 40 mg", "value": 2},
      {"measurement": "subjects who reached the 7% responder criterion (% change RPM2_BPND)", "setting": "amyloid plaque load; 40 mg", "value": 3},
      {"measurement": "Number of Responders/Total Number in Population, PET metric Cingulate Posterior", "setting": "amyloid plaque load; 40 mg twice daily 12 weeks", "value": "2/8"},
      {"measurement": "Number of Responders/Total Number in Population, PET metric Frontal", "setting": "amyloid plaque load; 40 mg twice daily 12 weeks", "value": "3/8"},
      {"measurement": "Number of Responders/Total Number in Population, PET metric Global", "setting": "amyloid plaque load; 40 mg twice daily 12 weeks", "value": "3/8"},
      {"measurement": "Number of Responders/Total Number in Population, PET metric Med Temp Lobe", "setting": "amyloid plaque load; 40 mg twice daily 12 weeks", "value": "4/8"},
      {"measurement": "Number of Responders/Total Number in Population, PET metric Parietal", "setting": "amyloid plaque load; 40 mg twice daily 12 weeks", "value": "3/8"},
      {"measurement": "Number of Responders/Total Number in Population, PET metric Temporal", "setting": "amyloid plaque load; 40 mg twice daily 12 weeks", "value": "2/8"},
      {"measurement": "Number of Responders/Total Number in Population, PET metric Cingulate Posterior", "setting": "amyloid plaque load; 125 mg twice daily 12 weeks", "value": "0/7"},
      {"measurement": "Number of Responders/Total Number in Population, PET metric Frontal", "setting": "amyloid plaque load; 125 mg twice daily 12 weeks", "value": "1/7"},
      {"measurement": "Number of Responders/Total Number in Population, PET metric Global", "setting": "amyloid plaque load; 125 mg twice daily 12 weeks", "value": "1/7"},
      {"measurement": "Number of Responders/Total Number in Population, PET metric Med Temp Lobe", "setting": "amyloid plaque load; 125 mg twice daily 12 weeks", "value": "2/7"},
      {"measurement": "Number of Responders/Total Number in Population, PET metric Parietal", "setting": "amyloid plaque load; 125 mg twice daily 12 weeks", "value": "0/7"},
      {"measurement": "Number of Responders/Total Number in Population, PET metric Temporal", "setting": "amyloid plaque load; 125 mg twice daily 12 weeks", "value": "1/7"},
      {"measurement": "Percentage reduction in global cortical RPM2-BPND, individual responders", "setting": "amyloid plaque load; 3 responders in the 40 mg dose group, 12 weeks", "value": "−11.6% and −11.9% and −40.5%"},
      {"measurement": "Number of Responders/Total Number in Population, PET metric Cingulate Posterior", "setting": "amyloid plaque load; All, 12 weeks", "value": "2/15"},
      {"measurement": "Number of Responders/Total Number in Population, PET metric Frontal", "setting": "amyloid plaque load; All, 12 weeks", "value": "4/15"},
      {"measurement": "Number of Responders/Total Number in Population, PET metric Global", "setting": "amyloid plaque load; All, 12 weeks", "value": "4/15"},
      {"measurement": "Number of Responders/Total Number in Population, PET metric Med Temp Lobe", "setting": "amyloid plaque load; All, 12 weeks", "value": "6/15"},
      {"measurement": "Number of Responders/Total Number in Population, PET metric Parietal", "setting": "amyloid plaque load; All, 12 weeks", "value": "3/15"},
      {"measurement": "Number of Responders/Total Number in Population, PET metric Temporal", "setting": "amyloid plaque load; All, 12 weeks", "value": "3/15"},
      {"measurement": "Percentage reduction in global cortical RPM2-BPND, individual responder", "setting": "amyloid plaque load; one responder in the 125 mg dose group, 12 weeks", "value": "−7.7", "unit": "%"},
      {"measurement": "liver transaminase elevations", "setting": "[2]", "value": "No liver transaminase elevations"},
      {"measurement": "serious adverse events", "setting": "[2]", "value": "No serious adverse events"},
      {"measurement": "tolerability", "setting": "[2]", "value": "well tolerated"},
      {"measurement": "MMSE individual subject scores", "setting": "[3]", "value": "overall trends are encouraging"},
      {"measurement": "CSF levels of butylcholinesterase", "setting": "butylcholinesterase", "value": "no change"}
    ]}
  ]
}
